# What was measured:
# Experiment in all cases: relative viability (nuclei count vs DMSO), 5 days (fraction); higher = more cells survive
# [1] = tested on: LXF-289
# How it was run: (§1)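 Five library-drug doses in √10 steps were combined with a fixed anchor-drug dose, or a single drug was given alone, by pin tool to lung cancer cell lines in 1536-well plates the day after seeding. Nuclei were stained and counted after 5 days. Relative viability is the nuclei count in treated wells over that in vehicle wells, taken as the median of duplicate plates.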
# [2] = tested on: NCI-H727
# How it was run: as §1
# [3] = tested on: NCI-H661
# How it was run: as §1
# [4] = tested on: NCI-H596
# How it was run: as §1
# [5] = tested on: SK-MES-1
# How it was run: as §1
# [6] = tested on: NCI-H522
# How it was run: as §1
# [7] = tested on: NCI-H2347
# How it was run: as §1
# [8] = tested on: NCI-H460
# How it was run: as §1
# [9] = tested on: PC-14
# How it was run: as §1
# [10] = tested on: NCI-H520
# How it was run: as §1
# [11] = tested on: NCI-H322M
# How it was run: as §1
# [12] = tested on: RERF-LC-KJ
# How it was run: as §1
# [13] = tested on: NCI-H3122
# How it was run: as §1
# [14] = tested on: NCI-H1915
# How it was run: as §1
# [15] = tested on: NCI-H1563
# How it was run: as §1
# [16] = tested on: NCI-H1792
# How it was run: as §1
# [17] = tested on: SW 900
# How it was run: as §1
# [18] = tested on: NCI-H1651
# How it was run: as §1
# [19] = tested on: NCI-H1355
# How it was run: as §1
# [20] = tested on: NCI-H1755
# How it was run: as §1
# [21] = tested on: NCI-H441
# How it was run: as §1
# [22] = tested on: LCLC-103H
# How it was run: as §1
smiles,measurement,setting,value
CCN(CC)CCCCNc1ncc2cc(-c3cc(OC)cc(OC)c3)c(NC(=O)NC(C)(C)C)nc2n1 + Cc1nc(Nc2ncc(C(=O)Nc3c(C)cccc3Cl)s2)cc(N2CCN(CCO)CC2)n1 [Dasatinib] (partner 0.075 µM),relative viability,[1]; first compound 0.01 µM,0.209
same,relative viability,[1]; first compound 0.03162 µM,0.249
same,relative viability,[1]; first compound 0.1 µM,0.266
same,relative viability,[1]; first compound 0.3162 µM,0.167
same,relative viability,[1]; first compound 1 µM,0.0987
same,relative viability,[2]; first compound 0.01 µM,0.177
same,relative viability,[2]; first compound 0.03162 µM,0.424
same,relative viability,[2]; first compound 0.1 µM,0.385
same,relative viability,[2]; first compound 0.3162 µM,0.507
same,relative viability,[2]; first compound 1 µM,0.351
same,relative viability,[3]; first compound 0.01 µM,0.906
same,relative viability,[3]; first compound 0.03162 µM,0.841
same,relative viability,[3]; first compound 0.1 µM,1.1
same,relative viability,[3]; first compound 0.3162 µM,1.03
same,relative viability,[3]; first compound 1 µM,0.644
same,relative viability,[4]; first compound 0.01 µM,0.633
same,relative viability,[4]; first compound 0.03162 µM,0.593
same,relative viability,[4]; first compound 0.1 µM,0.585
same,relative viability,[4]; first compound 0.3162 µM,0.393
same,relative viability,[4]; first compound 1 µM,0.44
same,relative viability,[5]; first compound 0.01 µM,0.36
same,relative viability,[5]; first compound 0.03162 µM,0.375
same,relative viability,[5]; first compound 0.1 µM,0.407
same,relative viability,[5]; first compound 0.3162 µM,0.281
same,relative viability,[5]; first compound 1 µM,0.27
same,relative viability,[6]; first compound 0.01 µM,0.862
same,relative viability,[6]; first compound 0.03162 µM,1.01
same,relative viability,[6]; first compound 0.1 µM,1
same,relative viability,[6]; first compound 0.3162 µM,0.879
same,relative viability,[6]; first compound 1 µM,0.79
same,relative viability,[7]; first compound 0.01 µM,0.149
same,relative viability,[7]; first compound 0.03162 µM,0.315
same,relative viability,[7]; first compound 0.1 µM,0.39
same,relative viability,[7]; first compound 0.3162 µM,0.288
same,relative viability,[7]; first compound 1 µM,0.31
same,relative viability,[8]; first compound 0.01 µM,0.538
same,relative viability,[8]; first compound 0.03162 µM,0.464
same,relative viability,[8]; first compound 0.1 µM,0.81
same,relative viability,[8]; first compound 0.3162 µM,0.709
same,relative viability,[8]; first compound 1 µM,0.395
same,relative viability,[9]; first compound 0.01 µM,0.263
same,relative viability,[9]; first compound 0.03162 µM,0.268
same,relative viability,[9]; first compound 0.1 µM,0.276
same,relative viability,[9]; first compound 0.3162 µM,0.264
same,relative viability,[9]; first compound 1 µM,0.162
same,relative viability,[10]; first compound 0.01 µM,0.182
same,relative viability,[10]; first compound 0.03162 µM,0.2
same,relative viability,[10]; first compound 0.1 µM,0.216
same,relative viability,[10]; first compound 0.3162 µM,0.159
same,relative viability,[10]; first compound 1 µM,0.162
same,relative viability,[11]; first compound 0.01 µM,0.242
same,relative viability,[11]; first compound 0.03162 µM,0.246
same,relative viability,[11]; first compound 0.1 µM,0.244
same,relative viability,[11]; first compound 0.3162 µM,0.257
same,relative viability,[11]; first compound 1 µM,0.237
same,relative viability,[12]; first compound 0.01 µM,0.783
same,relative viability,[12]; first compound 0.03162 µM,1
same,relative viability,[12]; first compound 0.1 µM,0.843
same,relative viability,[12]; first compound 0.3162 µM,0.947
same,relative viability,[12]; first compound 1 µM,0.738
same,relative viability,[13]; first compound 0.01 µM,0.876
same,relative viability,[13]; first compound 0.03162 µM,0.914
same,relative viability,[13]; first compound 0.1 µM,0.939
same,relative viability,[13]; first compound 0.3162 µM,0.954
same,relative viability,[13]; first compound 1 µM,0.842
same,relative viability,[14]; first compound 0.01 µM,0.303
same,relative viability,[14]; first compound 0.03162 µM,0.306
same,relative viability,[14]; first compound 0.1 µM,0.361
same,relative viability,[14]; first compound 0.3162 µM,0.286
same,relative viability,[14]; first compound 1 µM,0.297
same,relative viability,[15]; first compound 0.01 µM,0.477
same,relative viability,[15]; first compound 0.03162 µM,0.412
same,relative viability,[15]; first compound 0.1 µM,0.474
same,relative viability,[15]; first compound 0.3162 µM,0.478
same,relative viability,[15]; first compound 1 µM,0.503
same,relative viability,[16]; first compound 0.01 µM,0.734
same,relative viability,[16]; first compound 0.03162 µM,0.849
same,relative viability,[16]; first compound 0.1 µM,0.837
same,relative viability,[16]; first compound 0.3162 µM,0.671
same,relative viability,[16]; first compound 1 µM,0.475
same,relative viability,[17]; first compound 0.01 µM,0.346
same,relative viability,[17]; first compound 0.03162 µM,0.673
same,relative viability,[17]; first compound 0.3162 µM,0.345
same,relative viability,[17]; first compound 1 µM,0.268
same,relative viability,[18]; first compound 0.01 µM,0.465
same,relative viability,[18]; first compound 0.03162 µM,0.448
same,relative viability,[18]; first compound 0.1 µM,0.486
same,relative viability,[18]; first compound 0.3162 µM,0.47
same,relative viability,[18]; first compound 1 µM,0.288
same,relative viability,[19]; first compound 0.01 µM,0.775
same,relative viability,[19]; first compound 0.03162 µM,0.751
same,relative viability,[19]; first compound 0.1 µM,0.746
same,relative viability,[19]; first compound 0.3162 µM,0.775
same,relative viability,[19]; first compound 1 µM,0.663
same,relative viability,[20]; first compound 0.01 µM,0.394
same,relative viability,[20]; first compound 0.03162 µM,0.464
same,relative viability,[20]; first compound 0.1 µM,0.518
same,relative viability,[20]; first compound 0.3162 µM,0.621
same,relative viability,[20]; first compound 1 µM,0.207
same,relative viability,[21]; first compound 0.01 µM,0.68
same,relative viability,[21]; first compound 0.03162 µM,0.572
same,relative viability,[21]; first compound 0.1 µM,0.604
same,relative viability,[21]; first compound 0.3162 µM,0.775
same,relative viability,[21]; first compound 1 µM,0.554
same,relative viability,[22]; first compound 0.01 µM,0.424
same,relative viability,[22]; first compound 0.03162 µM,0.623
same,relative viability,[22]; first compound 0.1 µM,0.596
same,relative viability,[22]; first compound 0.3162 µM,0.554
same,relative viability,[22]; first compound 1 µM,0.331

# From the supplement of paper PMC10307832
